Laboratory results as given in patent US9765018B2, “IDO inhibitors” (BRISTOL-MYERS SQUIBB COMPANY, priority 2013, dated 2017).

Columns and labels:
[1] = molecular target: Human IDO1 (Homo sapiens (Human), UniProt P14902); experiment: IDO Kynurenine Assay with Human IDO1/HEK293 Cells; type: cell-based; conditions: HEK293 cells with human IDO1; read-out: HEK human IDO-1 (IC50)
Experimental: IDO Kynurenine Assay with Human IDO1/HEK293 Cells
Human IDO1/HEK293 cells were seeded at 10,000 cells per 50 uL per well with RPMI/phenol red free media contains 10% FBS in a 384-well black wall clear bottom tissue culture plate (Matrix Technologies LLC) 125 nL of certain concentration of compound was then added to each well using ECHO liquid handling systems. The cells were incubated for 20 hours in 37° C. incubator with 5% CO2.
The compound treatments were stopped by adding Trichloroacetic Acid (Sigma-Aldrich) to a final concentration at 0.2%. The cell plate was further incubated at 50° C. for 30 minute. The equal volume supernatant (20 uL) and 0.2% (w/v) Ehrlich reagent (4-dimethylaminobenzaldehyde, Sigma-Aldrich) in glacial acetic acid were mixed in a new clear bottom 384-well plate. This plate was then incubated at room temperature for 30 minute. The absorbance at 490 nm was measured on Envision plate reader.

[2] = molecular target: T1, IDO (Homo sapiens (Human), UniProt P14902); experiment: LLE_IDO_ABS_DR (IDO assay, method not described)
T1 sequence (P14902 whole entry): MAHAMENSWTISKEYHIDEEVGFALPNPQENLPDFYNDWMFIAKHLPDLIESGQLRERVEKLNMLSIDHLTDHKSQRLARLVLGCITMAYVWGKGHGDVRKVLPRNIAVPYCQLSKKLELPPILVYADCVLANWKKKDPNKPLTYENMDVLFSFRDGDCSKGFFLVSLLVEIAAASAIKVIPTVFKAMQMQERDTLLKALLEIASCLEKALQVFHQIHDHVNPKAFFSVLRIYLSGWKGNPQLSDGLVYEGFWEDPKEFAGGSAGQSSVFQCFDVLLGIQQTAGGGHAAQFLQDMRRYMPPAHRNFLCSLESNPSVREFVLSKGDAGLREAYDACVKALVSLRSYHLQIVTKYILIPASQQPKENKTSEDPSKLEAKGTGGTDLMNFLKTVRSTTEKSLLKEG

[3] = molecular target: T1, IDO; experiment: Kynurenine assay in IFN-γ-stimulated Hela cells; type: cell-based; conditions: 20 h, read-out: Hela Kyurenine (IC50)
Outline: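 Hela cells adhered 5-6 h, then received inhibitor (top dose 30 μM, 3-fold dilutions to 1.5 nM) plus 100 ng/mL human IFN-γ to induce IDO, 20 h at 37° C. TCA added, 30 min at 50° C hydrolyses N-formylkynurenine to kynurenine. Supernatant mixed with Ehrlich reagent, 10 min RT, absorbance 490 nm.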

Chain of Human IDO1 (P14902 whole entry): as above

| Structure (SMILES) | IC50 [1] [nM] | IC50 [2] [nM] | IC50 [3] [nM] |
| --- | --- | --- | --- |
| COc1ccc(-c2ccc(Oc3ccccc3C(C)(C)C)c(NC(=O)Nc3ccc(Cl)cc3Cl)c2)cc1C(=O)O [Example 103, 4′-(2-(tert-butyl)phenoxy)-3′-(3-(2,4-dichlorophenyl)ureido)-4-methoxy-[1,1′-biphenyl]-3-carboxylic acid] | 1310 | 470 | 90 |
| COc1ccc(-c2ccc(Oc3ccccc3C(C)C)c(NC(=O)Nc3ccc(C)cc3)c2)cc1C(=O)O [Example 63, 4′-(2-isopropylphenoxy)-4-methoxy-3′-(3-p-tolylureido)biphenyl-3-carboxylic acid] | 1600 | 1610 | 390 |
| COc1ccc(-c2ccc(Oc3cccc(C)c3C)c(NC(=O)Nc3ccccc3Cl)c2)cc1C(=O)O [Example 120, 3′-(3-(2-chlorophenyl)ureido)-4′-(2,3-dimethylphenoxy)-4-methoxybiphenyl-3-carboxylic acid] | 260 | 430 | 80 |
| COc1ccc(-c2ccc(Oc3cccc4c3CCCC4)c(NC(=O)Nc3ccc(C)c(C)c3)c2)cc1C(=O)O [Example 153, 3′-(3-(3,4-dimethylphenyl)ureido)-4-methoxy-4′-(5,6,7,8-tetrahydronaphthalen-1-yloxy)biphenyl-3-carboxylic acid] | 920 | 530 | 40 |
| COc1ccc(-c2ccc(Oc3cccc(C(C)(C)C)c3)c(NC(=O)Nc3ccc(C)cc3)c2)cc1C(=O)O [Example 113, 4′-(3-tert-butylphenoxy)-4-methoxy-3′-(3-p-tolylureido)biphenyl-3-carboxylic acid] | 1660 | 880 | 690 |
| COc1ccc(-c2ccc(Oc3cccc(C)c3C)c(NC(=O)Nc3ccc(C)cc3)c2)cc1C(=O)O [Example 123, 4′-(2,3-dimethylphenoxy)-4-methoxy-3′-(3-p-tolylureido)biphenyl-3-carboxylic acid] | 680 | 730 | 160 |
| COc1ccc(-c2ccc(Oc3cccc4c3CCC4)c(NC(=O)Nc3ccc(C)cc3)c2)cc1C(=O)O [Example 145, 4′-(2,3-dihydro-1H-inden-4-yloxy)-4-methoxy-3′-(3-p-tolylureido)biphenyl-3-carboxylic acid] | 1590 | 790 | 280 |
| Cc1ccc(NC(=O)Nc2cc(-c3cccc(C(=O)O)c3)ccc2Oc2cccc(Cl)c2)cc1 [Example 245, 4′-(3-chlorophenoxy)-3′-(3-p-tolylureido) biphenyl-3-carboxylic acid] | 6580 | 2250 | 250 |
| COc1ccc(-c2ccc(Oc3cccc4c3CCCC4)c(NC(=O)Nc3ccccc3)c2)cc1C(=O)O [Example 151, 4-methoxy-3′-(3-phenylureido)-4′-(5,6,7,8-tetrahydronaphthalen-1-yloxy)biphenyl-3-carboxylic acid] | 1120 | 300 | 60 |
| Cc1ccc(NC(=O)Nc2cc(-c3ccccc3C(=O)O)ccc2Oc2ccccc2C(C)(C)C)cc1 [Example 2, 4′-(2-tert-Butylphenoxy)-3′-(3-p-tolylureido)biphenyl-2-carboxylic acid] | 560 | 70 | 60 |
| COc1ccc(-c2ccc(Oc3cccc4c3CCC4)c(NC(=O)Nc3ccccc3C)c2)cc1C(=O)O [Example 143, 4′-(2,3-dihydro-1H-inden-4-yloxy)-4-methoxy-3′-(3-o-tolylureido)biphenyl-3-carboxylic acid] | 530 | 200 | 50 |
| COc1ccc(-c2ccc(Oc3ccccc3C)c(NC(=O)Nc3ccc(C)cc3)c2)cc1C(=O)O [Example 73, 4-methoxy-4′-(o-tolyloxy)-3′-(3-p-tolylureido)biphenyl-3-carboxylic acid] | 2970 | 1570 | 840 |
| COc1ccc(-c2ccc(Oc3cccc4c3CCCC4)c(NC(=O)Nc3ccccc3Cl)c2)cc1C(=O)O [Example 114, 3′-(3-(2-chlorophenyl)ureido)-4-methoxy-4′-(5,6,7,8-tetrahydronaphthalen-1-yloxy)biphenyl-3-carboxylic acid] | 120 | 100 | 20 |
| COc1ccc(-c2ccc(Oc3cccc4c3CCCC4)c(NC(=O)Nc3ccccc3C)c2)cc1C(=O)O [Example 115, 4-methoxy-4′-(5,6,7,8-tetrahydronaphthalen-1-yloxy)-3′-(3-o-tolylureido)biphenyl-3-carboxylic acid] | 240 | 200 | 50 |
| COc1ccc(-c2ccc(Oc3cccc4c3CCC4)c(NC(=O)Nc3ccccc3Cl)c2)cc1C(=O)O [Example 142, 3′-(3-(2-chlorophenyl)ureido)-4′-(2,3-dihydro-1H-inden-4-yloxy)-4-methoxybiphenyl-3-carboxylic acid] | 380 | 160 | 40 |
| COc1ccc(-c2ccc(Oc3ccc4c(c3)CCCC4)c(NC(=O)Nc3ccc(C)cc3)c2)cc1C(=O)O [Example 148, 4-methoxy-4′-(5,6,7,8-tetrahydronaphthalen-2-yloxy)-3′-(3-p-tolylureido)biphenyl-3-carboxylic acid] | 2420 | 490 | 260 |
| COc1ccc(-c2ccc(Oc3ccccc3C(C)(C)C)c(NC(=O)Nc3ccccc3Cl)c2)cc1C(=O)O [Example 42, 4′-(2-tert-butylphenoxy)-3′-(3-(2-chlorophenyl)ureido)-4-methoxybiphenyl-3-carboxylic acid] | 620 | 340 | 90 |
| COc1ccc(-c2ccc(Oc3cccc4c3CCCC4)c(NC(=O)Nc3ccccc3F)c2)cc1C(=O)O [Example 152, 3′-(3-(2-fluorophenyl)ureido)-4-methoxy-4′-(5,6,7,8-tetrahydronaphthalen-1-yloxy)biphenyl-3-carboxylic acid] | 450 | 290 | 50 |
| C#CCOc1cccc(Oc2ccc(-c3ccc(OC)c(C(=O)O)c3)cc2NC(=O)Nc2ccccc2Cl)c1C [Example 136, 3′-(3-(2-chlorophenyl)ureido)-4-methoxy-4′-(2-methyl-3-(prop-2-ynyloxy)phenoxy)biphenyl-3-carboxylic acid] | 70 | 140 | 20 |
| COc1ccc(-c2ccc(Oc3cccc4ccccc34)c(NC(=O)Nc3ccccc3C)c2)cc1C(=O)O [Example 129, 4-methoxy-4′-(naphthalen-1-yloxy)-3′-(3-o-tolylureido)biphenyl-3-carboxylic acid] | 290 | 300 | 70 |
| C#CCOc1cccc(Oc2ccc(-c3ccc(OC)c(C(=O)O)c3)cc2NC(=O)Nc2ccc(C)cc2)c1C [Example 141, 4-methoxy-4′-(2-methyl-3-(prop-2-ynyloxy)phenoxy)-3′-(3-p-tolylureido)biphenyl-3-carboxylic acid] | 420 | 330 | 50 |
| COc1ccc(-c2ccc(Oc3ccccc3C(C)(C)C)c(NC(=O)Nc3ccccc3F)c2)cc1C(=O)O [Example 79, 4′-(2-(tert-butyl)phenoxy)-3′-(3-(2-fluorophenyl)ureido)-4-methoxy-[1,1′-biphenyl]-3-carboxylic acid] | 420 | 130 | 60 |
| COc1ccc(-c2ccc(Oc3cccc(C)c3C)c(NC(=O)Nc3cccc(C)c3)c2)cc1C(=O)O [Example 122, 4′-(2,3-dimethylphenoxy)-4-methoxy-3′-(3-m-tolylureido)biphenyl-3-carboxylic acid] | 660 | 250 | 80 |
| CCCc1ccccc1Oc1ccc(-c2ccc(OC)c(C(=O)O)c2)cc1NC(=O)Nc1ccc(C)cc1 [Example 77, 4-methoxy-4′-(2-propylphenoxy)-3′-(3-p-tolylureido)biphenyl-3-carboxylic acid] | 2330 | 780 | 330 |
| CCOc1ccc(-c2ccc(Oc3ccccc3C(C)(C)C)c(NC(=O)Nc3ccc(C)cc3)c2)cc1C(=O)O [Example 5, 4′-(2-tert-Butylphenoxy)-4-ethoxy-3′-(3-p-tolylureido)biphenyl-3-carboxylic acid] | 1830 | 1010 | 120 |
| COc1ccc(-c2ccc(Oc3cccc4ccccc34)c(NC(=O)Nc3ccc(C)cc3)c2)cc1C(=O)O [Example 131, 4-methoxy-4′-(naphthalen-1-yloxy)-3′-(3-p-tolylureido)biphenyl-3-carboxylic acid] | 770 | 770 | 160 |
| COc1ccc(-c2ccc(Oc3ccccc3C(C)(C)C)c(NC(=O)Nc3ccc(C)cc3)c2)cc1NS(=O)(=O)C(F)(F)F [Example 7, N-(4′-(2-tert-Butylphenoxy)-4-methoxy-3′-(3-p-tolylureido)biphenyl-3-yl)-1,1,1-trifluoromethanesulfonamide] | 750 | 320 | 110 |
